According to patent US10046020B2, “Inflammation inhibiting compounds” (priority 2001, dated 2018):
Square brackets hold non-standard residues; d marks the D form. Peptide text beside a SMILES is read from it.

How the values were obtained:
[1] = test system: BNX mice transplanted with skin from psoriatic human donors; assay: Psoriasis transplant model (human psoriatic skin on BNX mice); type: in vivo; conditions: FIG. 25B; KdPT i.p. 10 μg/d, three weeks
Method: Immunodeficient mice (BNX mice) were transplanted with skin from psoriatic human donors. Animals with viable transplant were injected with PBMCs from the same donor, resulting in appearance of a psoriatic phenotype within the transplant. Animals were treated as follows:
Group 1: Betamethasone, topically, 2× daily, Group 2: Vehicle, i.p. 100 μL/d, Group 3: KdPT i.p. 1 μg/d, Group 4: KdPT i.p. 10 μg/d, all treatments were kept up for three weeks.
As shown in FIGS. 25A and 25B, immunodeficient mice (BNX mice) were transplanted with skin from psoriatic donors. Animals with viable transplant were injected with PBMCs from the same donor, resulting in appearance of a psoriatic phenotype within the transplant. Animals were treated as follows:
Group 1: Vehicle, i.p. 100 μL/d, Group 2: Betamethasone, topically, 2× daily, Group 3: KdPT i.p. 10 μg/d, all treatments were kept up for three weeks.

[2] = test system: bone marrow dendritic cells (BMDC); assay: CHS and tolerance after injection of BMDC treated in vitro with hapten and αMSH or KP; type: in vivo, mice; conditions: for immune response at second challenge after resensitization (tolerance): recipients of hapten- and peptide-treated BMDC; for CHS reaction at first challenge in recipients of hapten- and peptide-treated BMDC: αMSH 2×10^−11 M or KP 2×10^−6M in vitro, cells i.v.
Method: Bone marrow dendritic cells (BMDC) were isolated from the femoral bones of mice and treated with IL-4 and GMCSF for 6 or 9 days. On day 6 or 9, the cells were treated with αMSH (2×10^−11 M) or the peptide KP (2×10^−6M) 3 hours and 2.5 hours before reinjection into naive mice with the same genetic background. 2 hours before reinjection, the cells were treated with hapten (1 mM DNBS, the water-soluble form of DNFB). Immediately before the reinjection, the cells were washed 2× with PBS. […] were injected i.v. into each animal. Control cells were treated either with DNBS alone or with αMSH alone or were left untreated. 5 days after injection, the animals were contacted with DNFB on the ear, and the ear thickness was measured the next day. 2 weeks later, the animals were resensitized with DNFB and again recontacted on the ear 5 days later. Finally, the auricular swelling was measured.

Balb/C mice = assay: CHS sensitization and tolerance after i.v. injection of αMSH or peptides (DNFB); conditions: for inhibition of CHS response to DNFB exposure 7 days after sensitization (auricular swelling): i.v. 2 hours before sensitization, 5 μg αMSH or 1.5 μg peptide (KP: 50 μg) per mouse; for auricular swelling response after second sensitization and hapten exposure (tolerance to DNFB): injected i.v. before the first sensitization only
Method: 7 to 10 week old female Balb/C mice were obtained from Charles River (Sulzfeld, Germany) and kept in compliance with government regulations.
Before the injection, the particular compound was dissolved in PBS, 0.1% mouse serum, and stored on ice until injected i.v. into the tail vein of the mice.
The mice were sensitized by spreading 75 μl of 0.5% DNFB in acetone/olive oil (4:1) on the shaven abdomen of naive mice. CHS was induced by applying 10 μl of 0.3% DNFB to the ears of the mice on both sides of one ear. CHS was determined by the degree of auricular swelling of the hapten-exposed ear compared with the other, control-treated ear and was measured using spring-loaded dividers 24 hours after hapten exposure. Mice whose ears were exposed to hapten without previous sensitization served as negative controls.

human PBMC = assay: IL-10 secretion by human PBMC (ELISA); type: cell-based; conditions: for IL-10 production: 24 hours, αMSH 10^−11 M, KPV and KPT 10^−8 to 10^−9M; for production of IL-10: 48 hours
Method: Mononuclear cells (PBMC) were separated from human buffy coats by Ficoll Hypaque density gradient centrifugation. Cells (1×10^6 per ml), cultivated in RPMI 1640 with antibiotics and 10% FCS, were either not treated or stimulated with αMSH or the peptides KPV or KPT with or without IL-1β (10 U/ml). The supernatants of the PBMC cultures were collected after incubation for 24 or 48 hours and stored at −20° C. until used further. A commercially available ELISA was employed to detect IL-10.

[3] = biological target: T1, melanocortin receptor on THP-1 cells (MC-1) (Homo sapiens, UniProt Q01726); assay: Competition with biotin-labeled αMSH for binding sites on THP-1 cells (FACS); conditions: unlabeled competitor 10^−6 M; biotin-labeled αMSH 10^−10 M
T1 construct: endogenous in cells; host or cells: THP-1 monocytic cell line (unstimulated, whole cells)
T1 sequence (Q01726 whole entry): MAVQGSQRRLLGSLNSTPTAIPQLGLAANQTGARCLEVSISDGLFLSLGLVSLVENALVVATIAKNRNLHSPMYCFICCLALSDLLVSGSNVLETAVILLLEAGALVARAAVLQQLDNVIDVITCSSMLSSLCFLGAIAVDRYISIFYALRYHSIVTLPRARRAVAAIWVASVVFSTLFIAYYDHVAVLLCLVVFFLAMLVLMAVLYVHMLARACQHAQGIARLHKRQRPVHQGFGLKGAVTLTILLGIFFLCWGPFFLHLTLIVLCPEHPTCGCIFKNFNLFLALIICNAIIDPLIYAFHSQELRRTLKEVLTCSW
Method: All the steps were carried out at 0 to 4° C. The monocytic cell line THP-1 was washed once in PBS, once one acidic glycine buffer (50 mM glycine, 100 mM sodium chloride, pH 3) and three times with RPMI. The cells 2.5×10^6 per ml) were then resuspended in 100 μl of RPMI/1% BSA and transferred into 96-well microtiter plates. […] After a last washing step, the cells were resuspended in PBS. […] Dead cells were excluded by adding propidium iodide shortly before the FACS analysis.

CD4+-T-cells = assay: CD4+ T-cells after contact with peptide-treated DC in vitro; type: cell-based
[4] = test system: sensitised recipient mice (Hapten: DNFB); assay: Reinjection of CD4+ T-cells contacted with peptide-treated DC into DNFB-sensitised mice; type: in vivo; conditions: 1×10^6 cells
[5] = test system: E selectin, ICAM-1, VCAM in HDMEC and HMEC-1; assay: Expression of adhesion molecules in LPS- or TNFα-treated endothelial cells (RT-PCR, EIA, FACS); type: cell-based, human; conditions: 10^−6 to 10^−12 M
Method: (§1) Human dermal microvascular endothelial cells (HDMEC) and the cell line HMEC-1 (human microvascular endothelial cell line 1) were treated either with TNFα or LPS in the presence or absence of one of the peptides. The cells were harvested for RNA isolation after 3 and after 6 hours after treatment or harvested either for adhesion molecule ETA or FACS analysis 3, 6, 16 or 24 hours after treatment. RNA underwent reverse transcription, and samples were subjected to a PCR for E selectin, ICAM-1, VCAM or for β-actin as housekeeping gene in order to carry out a semiquantitative determination. For the lymphocyte adhesion assay, the endothelial cells were seeded in dishes and incubated with ^51Cr-labeled lymphocytes. After a washing step, the amount of remaining lymphocytes bound to the EC layer was determined by measuring the radioactivity in the samples.

HDMEC = assay: Lymphocyte adhesion assay (51Cr-labeled lymphocytes on endothelial cell layers); type: cell-based, human; conditions: molt4 T lymphocytes, JY B lymphocytes
Method: as §1

LPS-treated mice = assay: LPS-induced localized vasculitis in mice (E selectin, petechial lesions); type: in vivo; conditions: αMSH 25 μg at the time of the preparatory LPS injection
Method: Mice were treated with LPS by s.c. injection on one ear. This preparatory injection induces a long-lasting rise in E selectin expression at the site of the LPS injection. 24 hours later, a second LPS dose was injected i.p. (challenge). This second LPS injection leads to rapid vessel necrolysis and to the formation of petechial lesions which are easily measurable because of their size and number. αMSH (25 μg) was administered at the time of the preparatory LPS injection.

T cells / DC = assay: T cells contacted in vitro with antigen-loaded, αMSH or derivative-treated DC; type: in vivo, mouse; conditions: FIG. 15
[6] = test system: mice with Imiquimod-induced psoriasis-like skin inflammation; assay: Imiquimod-induced psoriasis-like disease in mice; type: in vivo
[7] = test system: PBMC from the blood of psoriasis patients; assay: Regulatory T cells in PBMC from blood of psoriasis patients; type: cell-based, human

Molecule | weight loss as compared to treatment with betamethasone [1] | immune response at second challenge after resensitization (tolerance) [2] | CHS reaction at first challenge in recipients of hapten- and peptide-treated BMDC [2] | inhibition of CHS response to DNFB exposure 7 days after sensitization (auricular swelling) (Balb/C mice) | auricular swelling response after second sensitization and hapten exposure (tolerance to DNFB) (Balb/C mice) | IL-10 production (human PBMC) | production of IL-10 (human PBMC) | suppression of biotin-labeled αMSH binding [3] | effect of co-cultured CD4+ T-cells on proliferation of CD4+CD25− responder T-cells (CD4+-T-cells) | effect of reinjected CD4+ T-cells on contact allergy [4] | inhibition of LPS- or TNFα-induced expression of adhesion molecules (mRNA) [5] | binding of T and B cells to LPS- or TNF-αMSH-treated EC layers (HDMEC) | number and size of petechial lesions after challenge injection of LPS (LPS-treated mice) | induction of tolerance by T cells contacted in vitro with antigen-loaded, treated DC (T cells / DC) | number of regulatory CD4+CD25+Foxp3+ T cells ([6]; flow cytometry) | expression of regulatory T cells markers ([6]; qRT-PCR) | expression of Th17 markers ([6]; quantitative RT-PCR) | expression of Foxp3 and IL-10 in regulatory T cells [7] | expression of IFN-γ in regulatory T cells [7]
C[C@@H](O)[C@H](NC(=O)[C@H]1CCCN1C(=O)[C@@H](N)CCCCN)C(=O)O [KdPT, (L)Lys-(D)Pro-(L)Thr] (H-Lys-[dP]-Thr-OH) | does not result in weight loss | – | – | – | – | – | – | – | – | – | – | – | – | – | – | – | – | – | –
Lys-Pro [KP] | – | can induce tolerance | suppressed | inhibits | inhibited the auricular swelling response very greatly | – | – | – | – | – | – | – | – | – | – | – | – | – | –
Lys-Pro-Val [KPV] | – | – | – | inhibits | weak effect | evidently induced IL-10 production | significantly increased | significant inhibition | suppressive effect on the proliferation | suppressive effect on contact allergy | – | – | – | – | – | – | – | – | –
α-melanocyte-stimulating hormone [αMSH] | – | no immune response | suppressed | inhibits | inhibited the auricular swelling response very greatly | evidently induced IL-10 production | significantly increased | – | suppressive effect on the proliferation | suppressive effect on contact allergy | inhibited | significantly reduces | significantly reduces | induction of tolerance | increased numbers | increased expression | Reduced Expression | upregulated | downregulated substantially
